This is an account of results in patent US20130344501A1, “METHODS FOR PRODUCING THREE-DIMENSIONAL PHYSIOLOGICALLY RELEVANT IMMUNE TISSUE SYSTEMS UNDER LOW FLUID SHEAR CONDITIONS” (priority 2010, published 2013).

One series has as its system A549 3-D. Description: Cell viability of three-dimensional A549 monotypic cultures after exposure to 3-oxo-C12 HSL, flow cytometry. The class given is cell-based, human. The settings on record: for Percentage viability, A549 3-D: A549 exposed alone, 20 hour exposure. As to the method: The three-dimensional A549 monotypic cultures were made as previously described (Carterson et al., 2005).
(§1) Assessment of live-, apoptotic-, and necrotic cell populations was performed with the annexin V-propidium iodide (PI) kit for flow cytometry analysis (ImmunoSource) according to the manufacturer's instructions.
(§2) Stained cell suspensions were analyzed with an EPICS XL flow cytometer (Beckman-Coulter) or a Cytomics FC 500 system (Beckman-Coulter), equipped with an argon laser and filters for adequate excitation of the chosen fluorophores. Forward scatter, side scatter, FITC-, PI and PE-Cy5 emissions were measured and a total of 10,000 cells were recorded for each sample. The respective cell populations were delimited to eliminate background signals originating from cell debris. To assess background fluorescent signals from the tested cell populations, non-stained samples were included.
(§3) After 72 hours of co-cultivation, aggregates containing 2×10^6 cells were seeded into 6-well plates containing fresh medium (5 ml total volume). Subsequently, aggregates were spiked with 5, 10 or 100 μM 3-oxo-C12 HSL (Sigma-Aldrich) (starting from a 20 mM stock solution in DMSO, stored at −20° C.). Equal volumes of DMSO, containing the respective amounts of 3-oxo-C12 HSL, were added to each well (25 μl) and a solvent control (25 μl DMSO) was included in each experiment. Six-well plates were placed at 37° C. in a 5% CO2 environment and incubated for 20 hours. For exposure assays of monocytes to 3-oxo-C12 HSL, 2×10^6 U937 cells/well were transferred in 6-well plates. To assess the influence of 3-oxo-C12 HSL on monocytes cultured on microcarrier beads, collagen I-coated beads were added to the cells at the same concentration as for seeding three-dimensional cultures (1 bead per 2500 cells). Subsequently, monocyte cultures (with or without microcarrier beads) were spiked with 3-oxo-C12 HSL (see above). A solvent control was included. After 20 hours incubation, cells were processed for flow cytometry analysis. Cell viability was assayed with trypan blue (0.4%) (Sigma) and/or with the annexin V-PI kit (ImmunoSource) (see above). […] FIG. 9B are examples of the three-dimensional A549-U937 co-culture model exposed to 100 μM 3-oxo-C12 HSL and to the solvent control DMSO. The presented cell population is gated for CD45 positive cells and thus only includes monocytes/macrophages. For FIGS. 9A-B, “I” represents the percentage of dead cells, while “H” is the viable cell population. Consequently, cell viability was further assessed based on the shift in forward scatter signal (see Table 1).

Series [1] deals with A549 cells in A549-U937 3-D co-culture. Description: Viability of A549 epithelial cells in the three-dimensional A549-U937 co-culture after exposure to 3-oxo-C12 HSL. The settings on record: A549 co-cultured three-dimensionally with U937, 20 hour exposure. Format: cell-based, human. As for the experimental part:
(§4) A549 three-dimensional aggregates were grown as described above and after 9 days of three-dimensional A549 cultivation, undifferentiated U937 monocytes were added to the HARV as follows. three-dimensional A549 cells were counted by trypsinization of an aggregate sample and U937 cells (grown in T75 flasks) were added in a 1:1 ratio to the three-dimensional A549 culture. A549 and U937 cells were co-cultured in the HARV at 20 rpm for 72 h. After addition of the monocytes, culture medium was changed after 48 hours of co-cultivation where after medium was replenished every 24 hours.
as §1, §2
After 72 hours of co-cultivation, aggregates containing 2×10^6 cells were seeded into 6-well plates containing fresh medium (5 ml total volume). Subsequently, aggregates were spiked with 5, 10 or 100 μM 3-oxo-C12 HSL (Sigma-Aldrich) (starting from a 20 mM stock solution in DMSO, stored at −20° C.). Equal volumes of DMSO, containing the respective amounts of 3-oxo-C12 HSL, were added to each well (25 μl) and a solvent control (25 μl DMSO) was included in each experiment. Six-well plates were placed at 37° C. in a 5% CO2 environment and incubated for 20 hours. […] Consequently, cell viability was further assessed based on the shift in forward scatter signal (see Table 1).

In series [2] the test system is U937 cells in A549-U937 3-D co-culture. Description: Viability of U937 macrophage-like cells (CD45 positive) in the three-dimensional A549-U937 co-culture after exposure to 3-oxo-C12 HSL. Format: cell-based, human. The settings on record: for Percentage viability, A549-U937 3-D, U937: U937 co-cultured three-dimensionally with A549, 20 hour exposure. As for the experimental part:
as §4, §1, §2
three-dimensional co-cultures of A549 and U937 cells (as described above) were stained for CD45, since this marker specifically stains leukocytes.
as §3

The test system of series [3] is ICAM-1 signal of the macrophage-like cells (U937, CD45 positive). Description: ICAM-1 signal of macrophage-like cells in the three-dimensional A549-U937 co-culture exposed to 3-oxo-C12 HSL, flow cytometry. Format: cell-based, human. As to conditions: 100 μM; 20 hours; p<0.01; mean ± SD, N=3. The text has this: Mouse anti-human CD45 (Invitrogen) and ICAM-1 (Invitrogen) conjugated with phycoerythrin (PE)-Cy5 and FITC respectively were used for flow cytometry staining. Sample preparation and fluorescent staining of cells. Cells were rinsed 2 times with pre-warmed HBSS (Invitrogen), detached from microcarrier beads/culture flasks with 0.25% trypsin-EDTA (Invitrogen) and counted using a hemocytometer. For inclusion of cells detached from the microcarrier beads (three-dimensional A549 and three-dimensional A549-U937 co-cultures) in the frame of QS exposure studies (see below), whole cultures (both aggregates and bulk liquid) were centrifuged at 1200 rpm for 6 min for each washing step. […]
Stained cell suspensions were analyzed with an EPICS XL flow cytometer (Beckman-Coulter) or a Cytomics FC 500 system (Beckman-Coulter), equipped with an argon laser and filters for adequate excitation of the chosen fluorophores. Forward scatter, side scatter, FITC-, PI and PE-Cy5 emissions were measured and a total of 10,000 cells were recorded for each sample. […]
After 72 hours of co-cultivation, aggregates containing 2×10^6 cells were seeded into 6-well plates containing fresh medium (5 ml total volume). […] Consequently, cell viability was further assessed based on the shift in forward scatter signal (see Table 1).

In the next series the test system is U937 cells. As to conditions: this and other studies (Tateda 2003, Kravchenko 2006, Li 2009); cited from earlier work.

Regarding `CCCCCCCCCC(=O)CC(=O)N[C@H]1CCOC1=O` [3-oxo-C12 HSL, N-(3-oxododecanoyl)-Lhomoserine lactone], the “cell death in A549 three-dimensional monotypic cultures” value with A549 3-D (5, 10 and 100 μM) was “did not induce cell death”. The figures for the “Percentage viability, A549 3-D” value with A549 3-D (5 μM), with A549 3-D (10 μM) and in the series with A549 3-D (100 μM) were 97.7 ± 0.00%, 97.8 ± 0.00% and 94.9 ± 0.02%, respectively. Further, the entries for the “Percentage viability, A549-U937 3-D, A549” value in series [1] (5 μM), in series [1] (10 μM) and in series [1] (100 μM) were 90.3 ± 0.01%, 92.6 ± 0.00% and 84.3 ± 0.00%, respectively. Moreover, in series [2] (100 μM versus DMSO control), the “macrophage cell death with inclusion of all detached cells” value is on record as “no difference in macrophage cell death”. For the same compound, the “decrease of the ratio of U937 cells to the total cell population in three-dimensional A549-U937 aggregates” value in series [2] (100 μM, compared to the non-exposed control) is on record as 37±5%. The “viability of macrophage-like U937 cells co-cultured with A549 in three-dimensional” value in series [2] (100 μM, up to 20 hours) was “minimally affected in viability”. Also, the “death in the attached macrophage-like cell population of the co-culture” value in series [2] (5 and 10 μM, compared to the control) is given as “did not induce increased death”. Further, the figures for the “Percentage viability, A549-U937 3-D, U937” value in series [2] (5 μM), in series [2] (10 μM) and in series [2] (100 μM) were 97.1 ± 0.01%, 99.3 ± 0.01% and 93.8 ± 0.03%, respectively. In series [2] (concentrations up to 100 μM, either of the cell populations), the “cell death in three-dimensional co-cultured monocytes/macrophages with alveolar epithelium” value is given as “did not induce cell death”. Also, the “increase in the ICAM-1 signal compared to the control samples” value in series [3] was determined as 2.93±0.79 fold. Besides, the “concentrations at which apoptosis is induced in pure cultures of monocytes and macrophages” value with U937 cells is “above 25 μM”.
